These compounds were tested on red blood cells (5% RBC suspension) (assay: Test Example 2-1: in vitro hemolytic activity test (upper limit 50, 80, 100 or 200 μmol/L)). Details: Erythrocyte, 1 h, read-out: hemolysis IC50.
Type: cell-based
Protocol: Nephrotoxic potentials of the compounds of the present invention except the compounds whose X is —N(R^F)—CO—X^1 and X^1 is the group represented by formula (III) and T is —N(R^a5)— were investigated by in vitro hemolytic activity test under the condition, in that, the upper limit was 50 μmol/L, 80 μmol/L, 100 μmol/L, or 200 μmol/L as the required concentration to 50% of hemolysis (IC50).
Defibrinated sterile blood was centrifuged at 700×g for 3 minutes and, and the supernatant was removed for 100% of red blood cells. After the cleaning with physiological saline, the washed blood cells was suspended in the medium (Earle's balanced salt sodium, bicarbonate, 0.1 g/L L-glutamine without phenol red), and was diluted by 5% (5% RBC suspension).
The washed blood was diluted by 5% in water for injection (solution of complete hemolysis), and was used as the indication of optical density for complete hemolysis.
The compounds of the present invention solution in DMSO (several and doubling dilutions starting from 2.5 mmol/L, 4 mmol/L, 5 mmol/L, or 10 mmol/L), DMSO as the negative control, and Amphotericin B as the positive control were used, and each 5 μL of these was added in to a well of V-form 96 well type microplate.
Finally, the maximum concentration of the compounds of the present invention solution in DMSO was 50 μmol/L, 80 μmol/L, 100 μmol/L, or 200 μmol/L by adding 245 μL of the medium or 5% RBC suspension into the well.
Two hundred fifty μL of the solution of complete hemolysis was added into another well and the microplate was incubated at 37° C. in 5% of CO2 concentration for an hour.
After the incubation, each 100 μL of supernatants in wells was collected by centrifugation of the microplate at 300×g for 5 minutes and was located on a well of flat-form 96 well type microplate. An absorbance of each supernatant was measured at wavelength of 540 nm.
Percent hemolysis was calculated by using the followed equation. The required concentration to 50% of hemolysis (IC50) was calculated based on the percent hemolysis. […] Hemolysis (%)=(CR−VM)×100÷(VL−VR) Where:
CR: Absorbance of 5% RBC suspension incubated with the compounds of the present invention solution in DMSO
VM: Absorbance of medium incubated with the compounds of the present invention solution in DMSO
VL: Absorbance of solution of complete hemolysis
VR: Absorbance of 5% RBC suspension incubated with DMSO
The “hemolysis method” in the table means any tests the upper concentration of above IC50 are 50 μmol/L, 80 μmol/L, 100 μmol/L or 200 μmol/L. The “>50”, “>80”, “>100” or “>200” in the table means above IC50 value exceeded the each upper concentration.

`C[C@@H]1[C@H](O)[C@@H](C)/C=C/C=C/C=C/C=C/C=C/C=C/C=C/[C@H](O[C@@H]2O[C@H](C)[C@@H](O)[C@H](N)[C@@H]2O)C[C@@H]2O[C@](O)(C[C@@H](O)C[C@@H](O)[C@H](O)CC[C@@H](O)C[C@@H](O)CC(=O)O[C@H]1C)C[C@H](O)[C@H]2c1nc(-c2ccc(N(C)C)cc2)no1` [I-390] was tested. Which IC50 did it give?
Its IC50 is > 50 µM.

Same assay, conditions: Erythrocyte, 1 h; hemolysis method 50 (upper concentration 50 μmol/L); 5% RBC suspension, 37° C., one hour; read-out: hemolysis IC50

`C[C@@H]1[C@H](O)[C@@H](C)/C=C/C=C/C=C/C=C/C=C/C=C/C=C/[C@H](O[C@@H]2O[C@H](C)[C@@H](O)[C@H](N)[C@@H]2O)C[C@@H]2O[C@](O)(C[C@@H](O)C[C@@H](O)[C@H](O)CC[C@@H](O)C[C@@H](O)CC(=O)O[C@H]1C)C[C@H](O)[C@H]2c1nc(-c2ccccc2)no1` [I-391] was tested. Which IC50 did it give?
The IC50 was > 50 µM.

`C[C@@H]1[C@H](O)[C@@H](C)/C=C/C=C/C=C/C=C/C=C/C=C/C=C/[C@H](O[C@@H]2O[C@H](C)[C@@H](O)[C@H](N)[C@@H]2O)C[C@@H]2O[C@](O)(C[C@@H](O)C[C@@H](O)[C@H](O)CC[C@@H](O)C[C@@H](O)CC(=O)O[C@H]1C)C[C@H](O)[C@H]2NC(=O)NC1(C(=O)O)COC1` [I-252] was tested. Which IC50 did it give?
The IC50 was > 50 µM.

Same assay, conditions: hemolysis method 50 (upper concentration 50 μmol/L); 5% RBC suspension, 37° C., one hour; read-out: hemolysis IC50

For `C[C@@H]1[C@H](O)[C@@H](C)/C=C/C=C/C=C/C=C/C=C/C=C/C=C/[C@H](O[C@@H]2O[C@H](C)[C@@H](O)[C@H](N)[C@@H]2O)C[C@@H]2O[C@](O)(C[C@@H](O)C[C@@H](O)[C@H](O)CC[C@@H](O)C[C@@H](O)CC(=O)O[C@H]1C)C[C@H](O)[C@H]2NC(=O)N1CC(NC[C@H](O)CO)C1` [I-226], which IC50 is on record?
The IC50 was > 50 µM.

With `C[C@@H]1[C@H](O)[C@@H](C)/C=C/C=C/C=C/C=C/C=C/C=C/C=C/[C@H](O[C@@H]2O[C@H](C)[C@@H](O)[C@H](N)[C@@H]2O)C[C@@H]2O[C@](O)(C[C@@H](O)C[C@@H](O)[C@H](O)CC[C@@H](O)C[C@@H](O)CC(=O)O[C@H]1C)C[C@H](O)[C@H]2NC(=O)NCCOCCS(C)(=O)=O` [I-241] as the compound, how does the IC50 read?
Its IC50 is > 50 µM.

`C[C@@H]1[C@H](O)[C@@H](C)/C=C/C=C/C=C/C=C/C=C/C=C/C=C/[C@H](O[C@@H]2O[C@H](C)[C@@H](O)[C@H](N)[C@@H]2O)C[C@@H]2O[C@](O)(C[C@@H](O)C[C@@H](O)[C@H](O)CC[C@@H](O)C[C@@H](O)CC(=O)O[C@H]1C)C[C@H](O)[C@H]2NC(=O)NC(C(=O)O)[C@H](C)O` (stereo partly shown) [I-291] was tested. Which IC50 did it give?
The IC50 was > 50 µM.

For `CON(C)C(=O)N[C@H]1[C@@H]2C[C@@H](O[C@@H]3O[C@H](C)[C@@H](O)[C@H](N)[C@@H]3O)/C=C/C=C/C=C/C=C/C=C/C=C/C=C/[C@H](C)[C@@H](O)[C@@H](C)[C@H](C)OC(=O)C[C@H](O)C[C@H](O)CC[C@@H](O)[C@H](O)C[C@H](O)C[C@](O)(C[C@@H]1O)O2` [I-282], which IC50 is on record?
The IC50 was > 50 µM.

For `C[C@@H]1[C@H](O)[C@@H](C)/C=C/C=C/C=C/C=C/C=C/C=C/C=C/[C@H](O[C@@H]2O[C@H](C)[C@@H](O)[C@H](N)[C@@H]2O)C[C@@H]2O[C@](O)(C[C@@H](O)C[C@@H](O)[C@H](O)CC[C@@H](O)C[C@@H](O)CC(=O)O[C@H]1C)C[C@H](O)[C@H]2NC(=O)NC(CNS(N)(=O)=O)CN(C)C` (stereo partly shown) [I-234], which IC50 is on record?
Its IC50 is > 50 µM.

Which IC50 does the source give for `C[C@@H]1[C@H](O)[C@@H](C)/C=C/C=C/C=C/C=C/C=C/C=C/C=C/[C@H](O[C@@H]2O[C@H](C)[C@@H](O)[C@H](N)[C@@H]2O)C[C@@H]2O[C@](O)(C[C@@H](O)C[C@@H](O)[C@H](O)CC[C@@H](O)C[C@@H](O)CC(=O)O[C@H]1C)C[C@H](O)[C@H]2NC(=O)NC1CCS(=O)(=O)C1` (stereo partly shown) [I-231] here?
Its IC50 is > 50 µM.

`C[C@@H]1[C@H](O)[C@@H](C)/C=C/C=C/C=C/C=C/C=C/C=C/C=C/[C@H](O[C@@H]2O[C@H](C)[C@@H](O)[C@H](N)[C@@H]2O)C[C@@H]2O[C@](O)(C[C@@H](O)C[C@@H](O)[C@H](O)CC[C@@H](O)C[C@@H](O)CC(=O)O[C@H]1C)C[C@H](O)[C@H]2NC(=O)NCCCC(=O)O` [I-38] was tested. Which IC50 did it give?
The IC50 was > 50 µM.

How did the IC50 turn out when `C[C@@H]1[C@H](O)[C@@H](C)/C=C/C=C/C=C/C=C/C=C/C=C/C=C/[C@H](O[C@@H]2O[C@H](C)[C@@H](O)[C@H](N)[C@@H]2O)C[C@@H]2O[C@](O)(C[C@@H](O)C[C@@H](O)[C@H](O)CC[C@@H](O)C[C@@H](O)CC(=O)O[C@H]1C)C[C@H](O)[C@H]2NC(=O)NCCC(N)=O` [I-81] was run?
Its IC50 is > 50 µM.

Same assay, conditions: hemolysis method 80 (upper concentration 80 μmol/L); 5% RBC suspension, 37° C., one hour; read-out: hemolysis IC50

For `C[C@@H]1[C@H](O)[C@@H](C)/C=C/C=C/C=C/C=C/C=C/C=C/C=C/[C@H](O[C@@H]2O[C@H](C)[C@@H](O)[C@H](N)[C@@H]2O)C[C@@H]2O[C@](O)(C[C@@H](O)C[C@@H](O)[C@H](O)CC[C@@H](O)C[C@@H](O)CC(=O)O[C@H]1C)C[C@H](O)[C@H]2NC(=O)N1CCN(c2ccccc2)CC1` [I-17], which IC50 is on record?
Its IC50 is > 80 µM.

`C[C@@H]1[C@H](O)[C@@H](C)/C=C/C=C/C=C/C=C/C=C/C=C/C=C/[C@H](O[C@@H]2O[C@H](C)[C@@H](O)[C@H](N)[C@@H]2O)C[C@@H]2O[C@](O)(C[C@@H](O)C[C@@H](O)[C@H](O)CC[C@@H](O)C[C@@H](O)CC(=O)O[C@H]1C)C[C@H](O)[C@H]2NC(=O)NCC(F)(F)F` [I-21] was tested. Which IC50 did it give?
The IC50 was > 80 µM.

How did the IC50 turn out when `C[C@@H]1[C@H](O)[C@@H](C)/C=C/C=C/C=C/C=C/C=C/C=C/C=C/[C@H](O[C@@H]2O[C@H](C)[C@@H](O)[C@H](N)[C@@H]2O)C[C@@H]2O[C@](O)(C[C@@H](O)C[C@@H](O)[C@H](O)CC[C@@H](O)C[C@@H](O)CC(=O)O[C@H]1C)C[C@H](O)[C@H]2NC(=O)N1CCC(N(C)C)C1` (single isomer, unassigned) [I-50] was run?
The IC50 was > 80 µM.

With `C[C@@H]1[C@H](O)[C@@H](C)/C=C/C=C/C=C/C=C/C=C/C=C/C=C/[C@H](O[C@@H]2O[C@H](C)[C@@H](O)[C@H](N)[C@@H]2O)C[C@@H]2O[C@](O)(C[C@@H](O)C[C@@H](O)[C@H](O)CC[C@@H](O)C[C@@H](O)CC(=O)O[C@H]1C)C[C@H](O)[C@H]2NC(=O)N1CCCCC1c1ccccc1` (stereo partly shown) [I-22] as the compound, how does the IC50 read?
Its IC50 is > 80 µM.

`C[C@@H]1[C@H](O)[C@@H](C)/C=C/C=C/C=C/C=C/C=C/C=C/C=C/[C@H](O[C@@H]2O[C@H](C)[C@@H](O)[C@H](N)[C@@H]2O)C[C@@H]2O[C@](O)(C[C@@H](O)C[C@@H](O)[C@H](O)CC[C@@H](O)C[C@@H](O)CC(=O)O[C@H]1C)C[C@H](O)[C@H]2NC(=O)NC1CCN(C)CC1` [I-48] was tested. Which IC50 did it give?
The IC50 was > 80 µM.

`C[C@@H]1[C@H](O)[C@@H](C)/C=C/C=C/C=C/C=C/C=C/C=C/C=C/[C@H](O[C@@H]2O[C@H](C)[C@@H](O)[C@H](N)[C@@H]2O)C[C@@H]2O[C@](O)(C[C@@H](O)C[C@@H](O)[C@H](O)CC[C@@H](O)C[C@@H](O)CC(=O)O[C@H]1C)C[C@H](O)[C@H]2NC(=O)NCC[N+](C)(C)C` [I-53] was tested. Which IC50 did it give?
Its IC50 is > 80 µM.

Same assay, conditions: hemolysis method 100 (upper concentration 100 μmol/L); 5% RBC suspension, 37° C., one hour; read-out: hemolysis IC50

For `C[C@@H]1[C@H](O)[C@@H](C)/C=C/C=C/C=C/C=C/C=C/C=C/C=C/[C@H](O[C@@H]2O[C@H](C)[C@@H](O)[C@H](NCc3cccnc3N)[C@@H]2O)C[C@@H]2O[C@](O)(C[C@@H](O)C[C@@H](O)[C@H](O)CC[C@@H](O)C[C@@H](O)CC(=O)O[C@H]1C)C[C@H](O)[C@H]2NC(=O)NCCN(C)C` [I-328], which IC50 is on record?
Its IC50 is > 50 µM.

With `CC1C=CC=CC=CC=CC=CC=CC=CC(OC2OC(C)C(O)C(N)C2O)CC2OC(O)(CC(O)CC(O)C(O)CCC(O)CC(O)CC(=O)OC(C)C(C)C1O)CC(O)C2NC(=O)NC1CCCC1O` (stereo not shown) [I-207] as the compound, how does the IC50 read?
Its IC50 is > 100 µM.

For `CNC(=O)N[C@H]1[C@@H]2C[C@@H](O[C@@H]3O[C@H](C)[C@@H](O)[C@H](NCc4ccc(N(C)C)cc4)[C@@H]3O)/C=C/C=C/C=C/C=C/C=C/C=C/C=C/[C@H](C)[C@@H](O)[C@@H](C)[C@H](C)OC(=O)C[C@H](O)C[C@H](O)CC[C@@H](O)[C@H](O)C[C@H](O)C[C@](O)(C[C@@H]1O)O2` [I-314], which IC50 is on record?
Its IC50 is > 80 µM.

How did the IC50 turn out when `C[C@@H]1[C@H](O)[C@@H](C)/C=C/C=C/C=C/C=C/C=C/C=C/C=C/[C@H](O[C@@H]2O[C@H](C)[C@@H](O)[C@H](N)[C@@H]2O)C[C@@H]2O[C@](O)(C[C@@H](O)C[C@@H](O)[C@H](O)CC[C@@H](O)C[C@@H](O)CC(=O)O[C@H]1C)C[C@H](O)[C@H]2NC(=O)NC(C)(CO)CO` [I-213] was run?
Its IC50 is > 100 µM.

With `C[C@@H]1[C@H](O)[C@@H](C)/C=C/C=C/C=C/C=C/C=C/C=C/C=C/[C@H](O[C@@H]2O[C@H](C)[C@@H](O)[C@H](N)[C@@H]2O)C[C@@H]2O[C@](O)(C[C@@H](O)C[C@@H](O)[C@H](O)CC[C@@H](O)C[C@@H](O)CC(=O)O[C@H]1C)C[C@H](O)[C@H]2NC(=O)N(C)C` [I-10] as the compound, how does the IC50 read?
Its IC50 is > 100 µM.
